In patent publication US20110160147A1, “NOVEL DUAL TARGETING A[…]” (priority 2008, published 2011):
“And” between values parts separate entries of the source, which are not always exact repeats. Identical values can stand only once.

Tests used:
αvβ3 receptor = αvβ3 receptor (Homo sapiens, UniProt P05106+P06756); assay: Solid-phase binding assay, inhibition of [125I]Echistatin binding to αvβ3 receptor
Experimental: (§1) The receptor binding assays were performed as described (Orlando R. A., et al., J. Biol. Chem. 1991, 266, 19543). αvβ3 and αvβ5 were diluted to 500 ng/ml and 1 μg/ml, respectively, in coating buffer (20 mM Tris, pH 7.4, 150 mM NaCl, 2 mM CaCl2, 1 mM MgCl2, 1 mM MnCl2) and an aliquot of 100 μL was added to a 96-well microtiter plate and incubated overnight at 4° C. The plate was washed once with blocking/binding buffer (50 mM Tris, pH 7.4, 100 mM NaCl, 2 mM CaCl2, 1 mM MgCl2, 1 mM MnCl2, 1% bovine serum albumin), and then was incubated for additional 2 h at RT The plate was rinsed twice with the same buffer and incubated for 3 h at RT with radiolabeled ligand [^125I]Echistatin (Amersham Pharmacia Biotech) 0.05 nM (0.1 nM for αv β5) in the presence of competing inhibitors. After the incubation, the wells were washed and radioactivity was determined with a gamma-counter (Packard). Non-specific binding of ligand was determined with molar excess (200 nM) of cold echistatin.
(§2) The IC50 values reported in Tables 1 and 2 were calculated as the concentrations of compounds required for 50% inhibition of echistatin binding and were estimated by the Prism GraphPad program. The Ki of the competing ligands were calculated according to the Cheng-Prusoff equation (Cheng Y. C., et al., Biochem. Pharmacol., 1973, 22, 3099). Values are the mean±log standard error of triplicate determinations from two independent experiments.

αvβ5 receptors = αvβ5 receptors (Homo sapiens, UniProt P06756+P18084); assay: Solid-phase binding assay, inhibition of [125I]Echistatin binding to αvβ5 receptors
Experimental: as §1, §2

[1] = Antitumour activity against A2780 ovarian carcinoma xenografted in CD1 nude mice; assay type: in vivo; conditions: CD1 nude, mouse, in vivo, sc; s.c. qdx5/wx2w; read-out: approximate maximum tolerate dose (MTD)
Experimental: (§3) Tumour cell lines (3×10^6) were injected s.c. into the right flank of CD1 nude mice (Harlan). Each experimental group included 10 mice. Tumours were implanted on day 0, and tumour growth was followed by biweekly measurements of tumour diameters with a Vernier caliper. Tumour volume was calculated according to the formula: TV (mm^3)=d^2×D/2, where d and D are the shortest diameter and the longest diameter respectively. Drug treatment started when tumours were just measurable on day 3 after tumour inoculation. The drug was administered subcutaneously for two weeks according to the schedule qd×5/w×2w at different doses in a volume of 10 ml/kg. Control mice were treated with the vehicle (10% DMSO).
(§4) Drug efficacy was assessed as described below. • a) TVI in drug-treated versus control mice was expressed as follows: TVI (%)=100−(mean TV treated/mean TV control)×100. TVI was evaluated 6 days after the last treatment, this timing corresponding to the time necessary to observe a doubling of tumour volume in the control mice. • b) Log cell kill (LCK) was calculated using the following formula: LCK=(T−C)/3.32×DT where T and C are the mean time (in days) required for treated (T) and control (C) tumours, respectively to reach a determined volume, and DT is the time necessary to observe a doubling of tumour volume in the control mice. • c) CR was defined as disappearance of the tumour lasting at least 6 days after the end of treatments. Tumours that had not regrown by the end of the experiment were considered “cured”.
(§5) Toxic effects of drug treatment were assessed as described below. • a) BWL was calculated as follows: BWL (%)=100−(mean body weight day x/mean body weight day 1)×100, where day 1 is the first day of treatment, and day x is any day thereafter. Mice were weighed every day throughout the period of treatment. • b) Lethal toxicity was defined as any death in treated groups occurring before any control death. Mice were inspected daily for mortality.
(§6) TI (therapeutic index) was calculated as ratio MTD/ED80.

[2] = system: A2780 ovarian ca. xenografted in CD1 nude mice; assay: as above; assay type: in vivo; conditions: for TVI % versus control mice: 6 days after last treatment
Experimental: as §3, §4, §5, §6

[3] = system: PC3 prostate ca. xenografted in CD1 nude mice; assay: Antimetastatic activity on bone metastases induced by intracardiac injection of PC3 human prostate carcinoma; assay type: in vivo
Experimental: Male CD1 nude mice were anesthetized by 4 ml/kg of a mixture (xylazine:ketavet 100) given i.p. PC3 tumour cells were inoculated by intracardiac injection (1×10^5 cells/0.1 ml/mouse) into the heart left ventricle of mice using a 27-gauge needle. Mice were subdivided (11 mice/group) in the following experimental groups and after three days from tumour injection the molecules were administered as described:
Vehicle (DMSO 10%) i.v. q4d×4.
To evaluate the antitumour activity of the drug, high-resolution total body radiological analysis was carried out by using Faxitron system. Radiological analysis was carried out 30 days after tumour injection. Body weight recordings were carried out through the study and mortality was noted.

[4] = 0.92 mg/10 ml/kg s.c. qdx5/wx2w
[5] = 2.77 mg/10 ml/kg s.c. qdx5/wx2w

Chain of αvβ3 receptor (P06756 31-889 limits assumed): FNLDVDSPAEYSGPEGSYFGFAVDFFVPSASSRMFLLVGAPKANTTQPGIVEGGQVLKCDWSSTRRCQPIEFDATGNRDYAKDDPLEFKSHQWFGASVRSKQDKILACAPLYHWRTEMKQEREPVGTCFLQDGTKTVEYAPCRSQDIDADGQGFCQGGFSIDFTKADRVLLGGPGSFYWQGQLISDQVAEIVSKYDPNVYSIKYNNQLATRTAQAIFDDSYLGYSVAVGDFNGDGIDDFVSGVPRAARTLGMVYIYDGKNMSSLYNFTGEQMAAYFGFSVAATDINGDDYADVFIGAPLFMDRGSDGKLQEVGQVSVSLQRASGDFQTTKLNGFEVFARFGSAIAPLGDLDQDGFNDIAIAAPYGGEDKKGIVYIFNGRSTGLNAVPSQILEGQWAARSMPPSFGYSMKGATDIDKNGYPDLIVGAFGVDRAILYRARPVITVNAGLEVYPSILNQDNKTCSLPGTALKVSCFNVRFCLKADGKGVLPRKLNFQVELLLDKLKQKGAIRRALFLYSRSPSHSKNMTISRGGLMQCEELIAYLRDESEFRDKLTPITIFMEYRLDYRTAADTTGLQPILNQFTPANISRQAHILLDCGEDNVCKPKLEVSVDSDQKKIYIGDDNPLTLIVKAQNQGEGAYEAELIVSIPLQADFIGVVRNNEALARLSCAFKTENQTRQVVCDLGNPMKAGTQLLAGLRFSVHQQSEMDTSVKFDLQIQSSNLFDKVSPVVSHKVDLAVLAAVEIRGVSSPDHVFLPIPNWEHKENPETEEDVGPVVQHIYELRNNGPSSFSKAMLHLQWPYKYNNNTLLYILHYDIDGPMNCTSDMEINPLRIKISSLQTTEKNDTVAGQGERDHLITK
Chain of αvβ3 receptor (P06756 891-1048 partner limits assumed): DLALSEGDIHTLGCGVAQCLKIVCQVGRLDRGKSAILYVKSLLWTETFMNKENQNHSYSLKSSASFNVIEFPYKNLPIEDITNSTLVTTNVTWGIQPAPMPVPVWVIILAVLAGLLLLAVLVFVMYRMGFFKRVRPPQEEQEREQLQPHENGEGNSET
Chain of αvβ3 receptor (P05106 27-788): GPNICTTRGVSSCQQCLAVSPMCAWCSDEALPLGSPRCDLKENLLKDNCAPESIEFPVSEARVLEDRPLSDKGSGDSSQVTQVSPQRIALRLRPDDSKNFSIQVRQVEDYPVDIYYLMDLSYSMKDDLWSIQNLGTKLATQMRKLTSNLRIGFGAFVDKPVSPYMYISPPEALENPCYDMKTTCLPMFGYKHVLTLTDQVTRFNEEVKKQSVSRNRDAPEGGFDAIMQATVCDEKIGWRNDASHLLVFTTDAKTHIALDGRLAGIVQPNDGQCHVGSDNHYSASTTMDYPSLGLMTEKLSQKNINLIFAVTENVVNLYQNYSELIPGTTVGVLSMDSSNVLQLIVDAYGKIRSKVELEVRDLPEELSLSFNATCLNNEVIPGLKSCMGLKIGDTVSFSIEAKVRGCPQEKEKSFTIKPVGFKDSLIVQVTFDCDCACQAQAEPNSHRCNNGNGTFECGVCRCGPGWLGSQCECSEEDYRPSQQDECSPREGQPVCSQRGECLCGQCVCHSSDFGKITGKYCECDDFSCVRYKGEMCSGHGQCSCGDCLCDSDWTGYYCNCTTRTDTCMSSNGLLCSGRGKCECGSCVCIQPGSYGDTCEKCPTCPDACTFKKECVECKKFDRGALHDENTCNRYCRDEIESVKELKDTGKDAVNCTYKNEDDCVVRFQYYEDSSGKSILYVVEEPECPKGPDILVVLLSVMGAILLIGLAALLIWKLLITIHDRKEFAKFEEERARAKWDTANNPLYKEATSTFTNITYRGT
Chain of αvβ5 receptors (P06756 31-889 limits assumed): as the sequence (P06756 31-889 limits assumed) above
Chain of αvβ5 receptors (P06756 891-1048 partner limits assumed): as the sequence (P06756 891-1048 partner limits assumed) above
Chain of αvβ5 receptors (P18084 24-799): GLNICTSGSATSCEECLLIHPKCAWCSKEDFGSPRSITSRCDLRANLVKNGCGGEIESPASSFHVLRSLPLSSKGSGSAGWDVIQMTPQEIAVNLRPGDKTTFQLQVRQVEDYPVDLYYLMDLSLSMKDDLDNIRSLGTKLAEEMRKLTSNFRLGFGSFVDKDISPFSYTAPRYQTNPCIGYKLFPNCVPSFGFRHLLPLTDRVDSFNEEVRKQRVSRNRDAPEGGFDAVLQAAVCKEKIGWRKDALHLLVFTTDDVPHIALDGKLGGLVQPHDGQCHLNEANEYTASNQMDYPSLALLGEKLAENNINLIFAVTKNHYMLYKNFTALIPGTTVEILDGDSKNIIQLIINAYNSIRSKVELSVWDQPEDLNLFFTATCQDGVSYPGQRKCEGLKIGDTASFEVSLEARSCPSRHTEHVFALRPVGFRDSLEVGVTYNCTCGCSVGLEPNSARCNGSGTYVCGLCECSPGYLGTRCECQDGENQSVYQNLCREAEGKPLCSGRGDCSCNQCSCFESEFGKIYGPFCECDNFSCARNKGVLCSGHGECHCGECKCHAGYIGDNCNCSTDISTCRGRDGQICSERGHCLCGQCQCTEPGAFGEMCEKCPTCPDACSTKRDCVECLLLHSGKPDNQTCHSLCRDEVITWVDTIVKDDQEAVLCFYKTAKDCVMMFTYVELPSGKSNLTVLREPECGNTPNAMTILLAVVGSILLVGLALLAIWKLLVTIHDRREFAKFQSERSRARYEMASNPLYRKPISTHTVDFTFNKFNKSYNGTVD

Work on `CC[C@@]1(O)C(=O)OCc2c1cc1n(c2=O)Cc2c-1nc1ccccc1c2C=NOCCNC(=O)OCc1ccc(NC(=O)[C@H](CCCNC(N)=O)NC(=O)[C@H](C)NC(=O)COCCOCCOCC(=O)NCc2ccc(C[C@@H]3NC(=O)[C@@H](Cc4ccccc4)NC(=O)[C@H](CC(=O)O)NC(=O)CNC(=O)[C@H](CCCNC(=N)N)NC3=O)cc2)cc1` [ST3833] yielded an IC50 (αvβ3 receptor) of 78.4 ± 1.5 nM, a Ki (αvβ3 receptor) of 61 nM and an IC50 (αvβ5 receptors) of 87.8 ± 1.21 nM. The Ki (αvβ5 receptors) was 68.2 nM, the MTD at 2 weeks [1] was ~25 mg/kg and the “BWL % (maximum body weight loss)” value [2, 4] was 0%. The “CR (disappearance of tumour)” value [2, 4] was 3/10, the “Cured (mice without lesion 90 days after tumour injection)” value [2, 4] was 3/10 and the “LCK (log cell kill)” value [2, 4] was 0.9. The “Lethal toxicity (dead/treated animals)” value [2, 4] was 0/10, the “TVI % versus control mice” value [2, 4] was 60% and the cured mice ([2]; 0.92 mg/kg) was 30%. The “BWL % (maximum body weight loss)” value [2, 5] was 0%, the “CR (disappearance of tumour)” value [2, 5] was 3/10 and the “Cured (mice without lesion 90 days after tumour injection)” value [2, 5] was 3/10. For the same compound, the “LCK (log cell kill)” value [2, 5] was 1.1, the “Lethal toxicity (dead/treated animals)” value [2, 5] was 0/10 and the “TVI % versus control mice” value [2, 5] was 75%. The cured mice ([2]; 2.77 mg/kg) was 30%, the “BWL % (maximum body weight loss)” value ([2]; 8.3 mg/10 ml/kg s.c. qdx5/wx2w) was 0% and the “CR (disappearance of tumour)” value ([2]; 8.3 mg/10 ml/kg s.c. qdx5/wx2w) was 5/10. For the same compound, the “Cured (mice without lesion 90 days after tumour injection)” value ([2]; 8.3 mg/10 ml/kg s.c. qdx5/wx2w) was 4/10, the “LCK (log cell kill)” value ([2]; 8.3 mg/10 ml/kg s.c. qdx5/wx2w) was 2.7 and the “Lethal toxicity (dead/treated animals)” value ([2]; 8.3 mg/10 ml/kg s.c. qdx5/wx2w) was 0/10. The “TVI % versus control mice” value ([2]; 8.3 mg/10 ml/kg s.c. qdx5/wx2w) was 100%, the “BWL % (maximum body weight loss)” value ([2]; 25 mg/10 ml/kg s.c. qdx5/wx2w) was 25% and 24% and the “CR (disappearance of tumour)” value ([2]; 25 mg/10 ml/kg s.c. qdx5/wx2w) was 9/9. For the same compound, the “Cured (mice without lesion 90 days after tumour injection)” value ([2]; 25 mg/10 ml/kg s.c. qdx5/wx2w) was 9/9, the “LCK (log cell kill)” value ([2]; 25 mg/10 ml/kg s.c. qdx5/wx2w) was >11.4 and the “Lethal toxicity (dead/treated animals)” value ([2]; 25 mg/10 ml/kg s.c. qdx5/wx2w) was 1/10. The “TVI % versus control mice” value ([2]; 25 mg/10 ml/kg s.c. qdx5/wx2w) was 100%, the cured mice ([2]; 1/3 MTD (8.3 mg/kg)) was 50% and the “cured mice at day 90” value ([2]; at the MTD (25 mg/kg s.c.)) was 100%. For the same compound, the “BWL % (maximum body weight loss)” value ([3]; 56 mg/10 ml/kg i.v. q4dx4) was 0%, the “Lethal toxicity (dead/treated animals)” value ([3]; 56 mg/10 ml/kg i.v. q4dx4) was 0/11 and the “MST (median survival time)” value ([3]; 56 mg/10 ml/kg i.v. q4dx4) was 58 days. The “Incidence of osteolytic lesions (mice with metastases)” value ([3]; 56 mg/10 ml/kg i.v. q4dx4, 30 days after tumour injection) was 5/11, the tolerability ([3]; 56 mg/kg iv (q4dx4), no reduction of body weight or lethal toxicity) was “well tolerated” and the “incidence of osteolytic lesions, % of mice” value ([3]; 56 mg/kg iv q4dx4, vehicle-treated group 91%) was 45%.
